Patent US20090291942A1, “IMIDAZO PYRIDINE DERIVATIVES” (priority 2008, published 2009)
Where a name gives a salt, the structure may show the parent alone.

Molecular target: T1, human GPR4 (Homo sapiens, UniProt P46093)
T1 construct: expressed in transfected cells
Experiment: Cell-based assay for human GPR4 activity (pH-induced cAMP formation, HTRF)
Conditions: HeLa cells stably expressing human GPR4, pH-induced cAMP formation
Description: a) Cell-Based Assay for Human GPR4 Activity
HeLa cells stably expressing human GPR4 were established by transfecting the cells with a construct containing the human GPR4 coding sequence. The cells were grown in DMEM/HAM's F12 medium supplemented with 10% fetal calf serum (FCS), 100 u/ml penicillin, 100 μg/ml streptomycin and 400 μg/ml G418 and 10 mM Hepes pH 8.0. pH-induced formation of cAMP was determined using the HTRF technology as provided by CisBio Inc. The cells were seeded in 384-well plates and cultured for 24 hours at 37° C., 5% CO2 before performing the assay. Medium was removed and 10 μl buffer A (HBS, 10 mM Hepes, pH 8, 2 mM IBMX) was added. For compound testing, buffer A with 2× concentrated compounds was used. Cells were incubated for 15 min at room temperature. 10 μl buffer B (HBS, 30 mM Hepes, specific pH) was added to reach the appropriate final pH for stimulation (see below) and incubation was continued for 15 min at room temperature. […] HBS: 130 mM NaCl, 0.9 mM NaH2PO4, 5.4 mM KCl, 0.8 mM MgSO4, CaCl2 1.8 mM, 25 mM glucose, 10-30 mM Hepes. Adjustment of HBS buffers: Bf A Bf B Final stimulation pH (1 volume buffer A+1 volume buffer B)
Compounds were diluted from fresh stock solutions at 10 mM in DMSO to 2 mM and then used for serial dilutions in DMSO.

T1 sequence (P46093 whole entry): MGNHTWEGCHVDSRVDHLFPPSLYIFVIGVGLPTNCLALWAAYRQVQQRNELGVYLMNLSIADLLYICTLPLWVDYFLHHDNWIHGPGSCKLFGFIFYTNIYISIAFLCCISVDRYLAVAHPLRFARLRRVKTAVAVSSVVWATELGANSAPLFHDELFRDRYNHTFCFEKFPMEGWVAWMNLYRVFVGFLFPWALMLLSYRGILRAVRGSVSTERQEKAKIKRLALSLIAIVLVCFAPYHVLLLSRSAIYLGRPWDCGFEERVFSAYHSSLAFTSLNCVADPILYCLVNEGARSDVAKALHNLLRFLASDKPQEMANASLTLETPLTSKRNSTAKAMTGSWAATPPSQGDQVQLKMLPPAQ

IC50 [nM]	SMILES
24	CCc1nc2c(C)cc(C)nc2n1Cc1ccc(/C=C(\F)CN2CCN(C(C)C)CC2)cc1 [Example 94, 2-Ethyl-3-{4-[(Z)-2-fluoro-3-(4-isopropyl-piperazin-1-yl)-propenyl]-benzyl}-5,7-dimethyl-3H-imidazo[4,5-b]pyridine dihydrochloride]
140	Cc1cc(C)c2nc(C(F)(F)F)n(Cc3ccc(/C=C/CN4CCN(C(C)C)CC4)cc3)c2n1 [Example 91, 3-{4-[(E)-3-(4-Isopropyl-piperazin-1-yl)-propenyl]-benzyl}-5,7-dimethyl-2-trifluoromethyl-3H-imidazo[4,5-b]pyridine dihydrochloride]
98	CCc1nc2c(C)cc(C)nc2n1Cc1ccc(CCCCN2CCN(C(C)(C)C)CC2)cc1 [Example 110, 3-{4-[4-(4-tert-Butyl-piperazin-1-yl)-butyl]-benzyl}-2-ethyl-5,7-dimethyl-3H-imidazo[4,5-b]pyridine dihydrochloride]
111	CCc1nc2c(C)cc(C)nc2n1Cc1ccc(/C=C/CN2C[C@H]3C[C@@H]2CN3CC2CC2)cc1 [Example 76, 3-{4-[(E)-3-((1R,4R)-5-Cyclopropylmethyl-2,5-diaza-bicyclo[2.2.1]hept-2-yl)-propenyl]-benzyl}-2-ethyl-5,7-dimethyl-3H-imidazo[4,5-b]pyridine trihydrochloride]
412	CCc1nc2c(C)cc(C)nc2n1Cc1ccc(CCCCN2CCN(C(C)C)CC2)cc1 [Example 111, 2-Ethyl-3-{4-[4-(4-isopropyl-piperazin-1-yl)-butyl]-benzyl}-5,7-dimethyl-3H-imidazo[4,5-b]pyridine dihydrochloride]
29	CCc1nc2c(C)cc(C)nc2n1Cc1ccc(/C=C(\F)CN2CCC(N3CCCCC3)CC2)cc1 [Example 93, 1′-{(Z)-3-[4-(2-Ethyl-5,7-dimethyl-imidazo[4,5-b]pyridin-3-ylmethyl)-phenyl]-2-fluoro-allyl}-[1,4′]bipiperidinyl dihydrochloride]
997	CCc1nc2c(C)cc(C)nc2n1Cc1ccc(C(=O)NCCCCN2CCCC2)cc1 [Example 99, 4-(2-Ethyl-5,7-dimethyl-imidazo[4,5-b]pyridin-3-ylmethyl)-N-(4-pyrrolidin-1-yl-butyl)-benzamide]
59	CCc1nc2c(C)cc(C)nc2n1Cc1ccc(CCCCN2CCC(N3CCCCC3)CC2)cc1 [Example 112, 1′-{4-[4-(2-Ethyl-5,7-dimethyl-imidazo[4,5-b]pyridin-3-ylmethyl)-phenyl]-butyl}-[1,4′]bipiperidine]
31	CCc1nc2c(C)cc(C)nc2n1Cc1ccc(/C=C(\F)CN2CCN(C(C)(C)C)CC2)cc1 [Example 95, 3-{4-[(Z)-3-(4-tert-Butyl-piperazin-1-yl)-2-fluoro-propenyl]-benzyl}-2-ethyl-5,7-dimethyl-3H-imidazo[4,5-b]pyridine dihydrochloride]

More lines, now with the values behind:

SMILES	IC50 [nM]
CCc1nc2c(C)cc(C)nc2n1Cc1ccc(CCCN2CCN(CCOC)CC2)cc1 [Example 20, 2-Ethyl-3-(4-{3-[4-(2-methoxy-ethyl)-piperazin-1-yl]-propyl}-benzyl)-5,7-dimethyl-3H-imidazo[4,5-b]pyridine dihydrochloride]	953
CCc1nc2c(C)cc(C)nc2n1Cc1ccc(/C=C/CN2CCC(N3CCCC3)CC2)cc1 [Example 32, 2-Ethyl-5,7-dimethyl-3-{4-[(E)-3-(4-pyrrolidin-1-yl-piperidin-1-yl)-propenyl]-benzyl}-3H-imidazo[4,5-b]pyridine]	177
CCc1nc2c(C)cc(C)nc2n1Cc1ccc(/C=C/CN2CCN(CCN(C(C)C)C(C)C)CC2)cc1 [Example 61, [2-(4-{(E)-3-[4-(2-Ethyl-5,7-dimethyl-imidazo[4,5-b]pyridin-3-ylmethyl)-phenyl]-allyl}-piperazin-1-yl)-ethyl]-diisopropyl-amine trihydrochloride]	499
CCc1nc2c(C)cc(C)nc2n1Cc1ccc(/C=C/CN2CCC(O)(CN3CCOCC3)CC2)cc1 [Example 39, 1-{(E)-3-[4-(2-Ethyl-5,7-dimethyl-imidazo[4,5-b]pyridin-3-ylmethyl)-phenyl]-allyl}-4-morpholin-4-ylmethyl-piperidin-4-ol]	280
CCc1nc2c(C)cc(C)nc2n1Cc1ccc(C#CCN2CCCC2)cc1 [Example 3, 2-Ethyl-5,7-dimethyl-3-[4-(3-pyrrolidin-1-yl-prop-1-ynyl)-benzyl]-3H-imidazo[4,5-b]pyridine]	584
CCc1nc2c(C)cc(C)nc2n1Cc1ccc(/C=C/CN2CCN(C)C[C@@H]2C(C)C)cc1 [Example 70, 2-Ethyl-3-{4-[(E)-3-((S)-2-isopropyl-4-methyl-piperazin-1-yl)-propenyl]-benzyl}-5,7-dimethyl-3H-imidazo[4,5-b]pyridine dihydrochloride]	496
CCc1nc2c(C)cc(C)nc2n1Cc1ccc(CCCN2CCN(C(CC)CC)CC2)cc1 [Example 15, 2-Ethyl-3-(4-{3-[4-(1-ethyl-propyl)-piperazin-1-yl]-propyl}-benzyl)-5,7-dimethyl-3H-imidazo[4,5-b]pyridine]	50
CCc1nc2c(C)cc(C)nc2n1Cc1ccc(CCCN2CCN(C)C[C@@H]2C(C)C)cc1 [Example 24, 2-Ethyl-3-{4-[3-((S)-2-isopropyl-4-methyl-piperazin-1-yl)-propyl]-benzyl}-5,7-dimethyl-3H-imidazo[4,5-b]pyridine dihydrochloride]	961
CCc1nc2c(C)cc(C)nc2n1Cc1ccc(CCCN2CCN(CC3CCC3)CC2)cc1 [Example 17, 3-{4-[3-(4-Cyclobutylmethyl-piperazin-1-yl)-propyl]-benzyl}-2-ethyl-5,7-dimethyl-3H-imidazo[4,5-b]pyridine dihydrochloride]	178
CCc1nc2c(C)cc(C)nc2n1Cc1ccc(/C=C/CN2C[C@H]3C[C@@H]2CN3CC(C)C)cc1 [Example 75, 2-Ethyl-3-{4-[(E)-3-((1R,4R)-5-isobutyl-2,5-diaza-bicyclo[2.2.1]hept-2-yl)-propenyl]-benzyl}-5,7-dimethyl-3H-imidazo[4,5-b]pyridine dihydrochloride]	146
CCc1nc2c(C)cc(C)nc2n1Cc1ccc(/C=C/CN2[C@@H]3CC[C@H]2CC(n2cnc4ccccc42)C3)cc1 (stereo partly drawn) [Example 41, 3-{4-[(E)-3-((1R,5S)-3-Benzoimidazol-1-yl-8-aza-bicyclo[3.2.1]oct-8-yl)-propenyl]-benzyl}-2-ethyl-5,7-dimethyl-3H-imidazo[4,5-b]pyridine hydrochloride]	799
CCc1nc2c(C)cc(C)nc2n1Cc1ccc(/C=C/CN2CCN(CCOC)CC2)cc1 [Example 62, 2-Ethyl-3-(4-{(E)-3-[4-(2-methoxy-ethyl)-piperazin-1-yl]-propenyl}-benzyl)-5,7-dimethyl-3H-imidazo[4,5-b]pyridine dihydrochloride]	552
CCc1nc2c(C)cc(C)nc2n1Cc1ccc(/C=C/CN2CCN(C3CCCC3)CC2)cc1 [Example 56, 3-{4-[(E)-3-(4-Cyclopentyl-piperazin-1-yl)-propenyl]-benzyl}-2-ethyl-5,7-dimethyl-3H-imidazo[4,5-b]pyridine]	165
CCc1nc2c(C)cc(C)nc2n1Cc1ccc(CCCN2C[C@H]3C[C@@H]2CN3CC)cc1 [Example 26, 2-Ethyl-3-{4-[3-((1R,4R)-5-ethyl-2,5-diaza-bicyclo[2.2.1]hept-2-yl)-propyl]-benzyl}-5,7-dimethyl-3H-imidazo[4,5-b]pyridine]	877
CCCN1CCN(C/C=C/c2ccc(Cn3c(CC)nc4c(C)cc(C)nc43)cc2)CC1 [Example 45, 2-Ethyl-5,7-dimethyl-3-{4-[(E)-3-(4-propyl-piperazin-1-yl)-propenyl]-benzyl}-3H-imidazo[4,5-b]pyridine]	46
CCc1nc2c(C)cc(C)nc2n1Cc1ccc(CCN2CCC(N3CCCCC3)CC2)cc1 [Example 5, 1′-{2-[4-(2-Ethyl-5,7-dimethyl-imidazo[4,5-b]pyridin-3-ylmethyl)-phenyl]-ethyl}-[1,4′]bipiperidinyl]	227
CCc1nc2c(C)cc(C)nc2n1Cc1ccc(C#CCN2CCC(N3CCCCC3)CC2)cc1 [Example 2, 1′-{3-[4-(2-Ethyl-5,7-dimethyl-imidazo[4,5-b]pyridin-3-ylmethyl)-phenyl]-prop-2-ynyl}-[1,4′]bipiperidine]	73
CCc1nc2c(C)cc(C)nc2n1Cc1ccc(CCCN2CCN(C(C)C)C(C)C2)cc1 (centres unmarked) [Example 23, 2-Ethyl-3-{4-[3-(4-isopropyl-3-methyl-piperazin-1-yl)-propyl]-benzyl}-5,7-dimethyl-3H-imidazo[4,5-b]pyridine]	253
CCc1nc2c(C)cc(C)nc2n1Cc1ccc(/C=C/CN2CCN(CCCN(C)C)CC2)cc1 [Example 59, [3-(4-{(E)-3-[4-(2-Ethyl-5,7-dimethyl-imidazo[4,5-b]pyridin-3-ylmethyl)-phenyl]-allyl}-piperazin-1-yl)-propyl]-dimethyl-amine dihydrochloride]	231
CCc1nc2c(C)cc(C)nc2n1Cc1ccc(CCCN2CCN(C3CC3)CC2)cc1 [Example 9, 3-{4-[3-(4-Cyclopropyl-piperazin-1-yl)-propyl]-benzyl}-2-ethyl-5,7-dimethyl-3H-imidazo[4,5-b]pyridine]	341
